Literature values in patent US12251426B2 (priority 2020, dated 2025).

Key:
[1] = biological target: SARS-CoV helicase protein (Severe acute respiratory syndrome coronavirus, UniProt P0C6X7)
[2] = biological target: SARS-CoV-2 S-protein/ACE2 receptor interface (UniProt P0DTC2+Q9BYF1)
S2 subunit of SARS-CoV = S2 subunit of SARS-CoV (Severe acute respiratory syndrome coronavirus, UniProt P59594)
SARS-CoV 3CLpro = SARS-CoV 3CLpro (Severe acute respiratory syndrome coronavirus, UniProt P0C6X7)
SARS-CoV PLpro = SARS-CoV PLpro (Severe acute respiratory syndrome coronavirus, UniProt P0C6X7)
SARS-CoV RdRp = SARS-CoV RdRp (Severe acute respiratory syndrome coronavirus, UniProt P0C6X7)
[3] = system: human coronavirus NL63 (HCoV-NL63); conditions: in vivo study (so in the source)
influenza A virus = conditions: in vitro
phospholipase A2 (PLA2) = conditions: in vitro
SARS-CoV-2 PLpro = SARS-CoV-2 PLpro (Severe acute respiratory syndrome coronavirus 2, UniProt P0DTD1)
macrophages = conditions: in vitro
3CLpro = 3CLpro (Severe acute respiratory syndrome coronavirus 2, UniProt P0DTD1)
helicase = helicase (Severe acute respiratory syndrome coronavirus 2, UniProt P0DTD1)
[4] = normal intake
[5] = system: alveolar epithelial lining surface; conditions: acute lung injury caused by sepsis in mice
T lymphocytes = conditions: in vitro, exogenous

SMILES: O=c1c(O)c(-c2cc(O)c(O)c(O)c2)oc2cc(O)cc(O)c12 [myricetin]
- inhibition of SARS-CoV helicase protein [1]: inhibits

SMILES: O=c1cc(-c2ccc(O)c(O)c2)oc2cc(O)cc(O)c12 [Luteolin, luteolin]
- binding affinity to S-protein/ACE2 receptor interface [2]: high binding affinity
- binding affinity to S2 subunit of SARS-CoV (S2 subunit of SARS-CoV): high binding affinity

SMILES: [Zn+2] [Zinc ions]
- inhibition of SARS-CoV 3CLpro (SARS-CoV 3CLpro): can inhibit
- inhibition of SARS-CoV PLpro (SARS-CoV PLpro): can also inhibit
- inhibition of SARS-CoV RdRp (SARS-CoV RdRp): direct inhibition

SMILES: O=C(O)/C=C/c1ccc(O)c(O)c1 [Caffeic acid, caffeic acid]
- inhibition of HCoV-NL63 [3]: blocking virus attachment
- inhibitory effect on replication of influenza A virus (influenza A virus): highly inhibitory effect
- water solubility: slightly water-soluble

SMILES: O=c1c(O)c(-c2ccc(O)c(O)c2)oc2cc(O)cc(O)c12 [Quercetin, quercetin]
- binding affinity to S-protein/ACE2 receptor interface [2]: significant binding affinity
- inhibition of SARS-CoV 3CLpro (SARS-CoV 3CLpro): inhibits

SMILES: O=C(O[C@@H]1Cc2c(O)cc(O)cc2O[C@@H]1c1cc(O)c(O)c(O)c1)c1cc(O)c(O)c(O)c1 [EGCG, epigallocatechin gallate]
- inhibition of PLA2 (phospholipase A2 (PLA2)): inhibit
- inhibition of SARS-CoV 3CLpro (SARS-CoV 3CLpro): inhibits
- binding affinity to SARS-CoV-2 PLpro (SARS-CoV-2 PLpro): strong binding affinity

SMILES: C=C1CC[C@H](O)C/C1=C/C=C1\CCC[C@]2(C)[C@@H]([C@H](C)CCCC(C)C)CC[C@@H]12 [vitamin D, cholecalciferol]
- expression of anti-inflammatory cytokines by macrophages (macrophages): increases
- expression of pro-inflammatory cytokines by macrophages (macrophages): reduces

SMILES: COc1ccc([C@@H]2CC(=O)c3c(O)cc(O[C@@H]4O[C@H](CO[C@@H]5O[C@@H](C)[C@H](O)[C@@H](O)[C@H]5O)[C@@H](O)[C@H](O)[C@H]4O)cc3O2)cc1O [Hesperidin, hesperidin]
- binding affinity to 3CLpro (3CLpro): high binding affinity
- binding affinity to helicase (helicase): high binding affinity
- signs of toxicity [4]: No signs of toxicity

SMILES: O=C1O[C@H]([C@@H](O)CO)C(O)=C1O [vitamin C, ascorbic acid]
- repair of the alveolar epithelial lining surface [5]: stimulates repair
- effect on number, proliferation, and function of T lymphocytes (T lymphocytes): increase
